Test results as given in PMC13286573, “Exploration of precision coregulator TR-FRET identifies diverse signatures for LXR ligands relevant to discovery of nonlipogenic ABCA1 inducers” (eLife, 2026).
“Also recorded” adds a separate entry of the source.

How the values were obtained:
LXR [1] = system: LXR; design: method as in Belorusova et al., 2019; conditions: ref Belorusova et al., 2019; cited from earlier work
LXRβ [2] = molecular target: T1, LXRβ (Homo sapiens, UniProt P55055); assay: NCOR2 corepressor binding to LXRβ, CRT; assay type: biochemical; design: The CRT selectivity assay incorporates GST-tagged LXR-LBD; purchased Thermo Fisher Scientific PV4660; conditions: ligand 1 µM, interpolated from concentration-response, normalized; heat map Figure 9A; read-out: NCOR2β, relative % activity at 1 μM
T1 sequence (P55055 222-460 limits assumed): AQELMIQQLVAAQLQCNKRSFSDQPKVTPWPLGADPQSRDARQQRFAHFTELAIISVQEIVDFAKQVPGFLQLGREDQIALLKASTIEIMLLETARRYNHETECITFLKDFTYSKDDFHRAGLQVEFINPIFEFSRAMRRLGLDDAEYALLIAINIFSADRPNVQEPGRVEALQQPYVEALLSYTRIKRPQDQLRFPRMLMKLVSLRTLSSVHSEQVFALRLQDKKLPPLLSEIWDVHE

[3] = system: sterol response element (SRE); assay: SRE-luc reporter assay in HepG2 cells; assay type: cell-based, human; conditions: concentrations ≤1 µM
Description: Our phenotypic high-throughput screen (HTS) approach to identify nonlipogenic ABCA1 Inducers (NLAI) originally used counterscreening with a SREBP1c-luciferase reporter (linked to the SREBF1 gene promoter) in human hepatocarcinoma HepG2 cells ([Ben Aissa et al., 2021]). Unwanted lipogenesis is mediated by LXR agonists via direct transcriptional activation and indirectly by the effects of SREBP1c ([Schultz et al., 2000]; [Brown and Goldstein, 1997]). SREBP1c enhances transcription of genes required for synthesis of fatty acids and TG and as the dominant isoform in liver is associated most closely with lipogenesis and TG elevation ([Brown and Goldstein, 1997]). […] Binding of SREBP1c to the sterol response element (SRE) induces transcription of lipogenic genes associated with elevated TG. To better model the lipogenic axis in hepatocytes, we use HepG2 cells stably transfected with a nanoluciferase reporter downstream of a SRE promoter (SRE-luc), activation of which requires SREBP1c maturation.
HepG2 cells were cotransfected with SRE (LDLR)-NlucP SuperPiggyBac Transposon and a separate Transposase plasmid (System Biosciences). Cells were expanded for multiple passages followed by selection with puromycin (1 μg/ml). Stable cells constitutively express GFP allowed for FACS enrichment and/or cell cloning. Initially, stable pools were compared to low expressing and high expressing enriched pools. The optimal pool was selected based on assay performance (Z’) and was grown and maintained as above, with the addition of 1.0 μg/mL of puromycin biweekly.
Cells were split into flasks containing CS medium (EMEM supplemented with 10% charcoal stripped FBS (Gibco A52567-01)) and 1% P/S and grown at 37 °C /5% CO2 for 48 hr before plating. Cells were plated in 384-well, white clear tissue culture plates (Greiner 781098) and allowed to grow at 37 °C /5% CO2 for 24 hr before medium was aspirated and compound dilutions prepared in CS medium were added. Following a 24 hr incubation, the medium was aspirated, and cells were lysed/luminescence quantified using the Nano-Glo Luciferase Assay System (Promega N1130).

ABCA1 = assay: ABCA1-luc reporter assay in CCF-STTG1 astrocytoma cells; assay type: cell-based, human
Description: Astrocytoma CCF-STTG1 cells, stably transfected with an ABCA1-promoter linked to a luciferase response element, provide a model for ABCA1 induction in astrocytes ([Ben Aissa et al., 2021]). […] Apparent inverse agonist activity in cell-based assays can result from ‘true’ inverse agonist recruitment of corepressors or from antagonist activity towards endogenous sterol LXR agonists. Although we use serum-stripped media, antagonism of endogenous LXR agonists cannot be ruled out.
Low passage CCF-STTG1 cells (20,000 cells/well) were seeded in 96-well plates in media containing charcoal-stripped FBS and incubated at 37 °C and 5% CO2 for 24 hr prior to a 24 hr treatment. All compounds were dissolved in DMSO, and final DMSO concentrations never exceeded 1%. After a 24 hr incubation period, add a volume of ONE-GLOEX Reagent that is equal to the volume of culture medium in each well and incubate for 3–5 min on the shaker. The luminescent activity of compounds ([…], 10-fold dilution) was examined using the ONE-GLOEX assay (Promega). […] The assays were performed in duplicates for each concentration, and the EC50 values were determined from non-linear regression analysis of the dose-response curve generated in GraphPad Prism 9.

LXRα [4] = molecular target: T2, LXRα (Homo sapiens, UniProt Q13133); assay: Multiplex precision CRT (pCRT), SRC1 and NCOR2, LXRα; assay type: biochemical; design: The CRT selectivity assay incorporates GST-tagged LXR-LBD; purchased Thermo Fisher Scientific PV4657; conditions: presence of SRC1, saturating ligand
T2 sequence (Q13133 209-447 limits assumed): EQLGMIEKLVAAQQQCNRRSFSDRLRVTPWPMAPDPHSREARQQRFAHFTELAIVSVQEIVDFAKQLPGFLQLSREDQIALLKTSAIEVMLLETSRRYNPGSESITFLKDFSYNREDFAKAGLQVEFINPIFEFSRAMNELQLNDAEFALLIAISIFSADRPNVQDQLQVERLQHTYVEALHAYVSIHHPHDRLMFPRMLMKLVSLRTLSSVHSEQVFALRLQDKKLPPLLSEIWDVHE

LXRβ [5] = molecular target: T1, LXRβ; assay: SRC-1 coactivator recruitment to LXRβ, coregulator TR-FRET (CRT); assay type: biochemical; design: The CRT selectivity assay incorporates GST-tagged LXR-LBD; purchased Thermo Fisher Scientific PV4660; conditions: biotin-SRC-1 CRT; read-out: Potency (EC50) for SRC-1 recruitment to LXRβ
LXRα [6] = molecular target: T2, LXRα; assay: NCOR2 corepressor binding to LXRα, CRT; assay type: biochemical; design: The CRT selectivity assay incorporates GST-tagged LXR-LBD; purchased Thermo Fisher Scientific PV4657; conditions: ligand 1 µM, interpolated from concentration-response, normalized; heat map Figure 9A; read-out: NCOR2α, relative % activity at 1 μM
LXRα [7] = molecular target: T2, LXRα; assay: SMRT2 corepressor binding to LXRα, CRT; assay type: biochemical; design: The CRT selectivity assay incorporates GST-tagged LXR-LBD; purchased Thermo Fisher Scientific PV4657; conditions: ligand 1 µM, interpolated from concentration-response, normalized; heat map Figure 9A; read-out: SMRT2α, relative % activity at 1 μM
LXRβ [8] = molecular target: T1, LXRβ; assay: Multiplex precision CRT (pCRT), SRC1 and NCOR2, LXRβ; assay type: biochemical; design: The CRT selectivity assay incorporates GST-tagged LXR-LBD; purchased Thermo Fisher Scientific PV4660; conditions: presence of SRC1
LXR [9] = assay: Corepressor (NCOR2, SMRT2) binding to LXR, CRT, statements across isoforms; assay type: biochemical; conditions: monoplex CRT, absence of coactivator
LXRβ [10] = molecular target: T1, LXRβ; assay: SMRT2 corepressor binding to LXRβ, CRT; assay type: biochemical; design: The CRT selectivity assay incorporates GST-tagged LXR-LBD; purchased Thermo Fisher Scientific PV4660; conditions: ligand 1 µM, interpolated from concentration-response, normalized; heat map Figure 9A; read-out: SMRT2β, relative % activity at 1 μM
human volunteers = conditions: 2016, cited from earlier work

CC(C)(O)c1cn(-c2ccc(-c3cc(F)c(CO)c(S(C)(=O)=O)c3)cc2F)c(C(C)(C)c2c(Cl)cccc2Cl)n1 [XL041]
Ligand behaviour in HDX-MS analysis (H12 conformation) (LXR [1]): act as an antagonist | activity at 1 µM (LXRβ [2]): 129% | Efficacy of SRE activation at concentrations ≤1 µM [3]: 20–25 % of T0 | Selectivity for ABCA1 induction versus SRE activation (potency correlation outliers) (ABCA1; CCF ABCA1-luc versus HepG2 SRE-luc): selectivity for ABCA1 induction | ABCA1 induction response/phenotype in CCF cells (ABCA1; normalized to T0): partial agonist response | Maximal signal for NCOR2-bound LXRα in pCRT (LXRα [4]): significantly higher than zero | EC50 (LXRβ [5]): 10 nM | activity at 1 µM (LXRα [6]): 142% | activity at 1 µM (LXRα [7]): 152% | NCOR2 displacement from LXRβ in pCRT (LXRβ [8]): fully displaced | Corepressor (NCOR2, SMRT2) displacement or stabilization, across LXR isoforms (LXR [9]): stabilized LXR complexes with corepressor bound; also recorded: strongly stabilized the corepressor-bound conformation | activity at 1 µM (LXRβ [10]): 153% | Cmax (human volunteers; human, 2.5 mg/kg p.o., Day 14, ref Kirchgessner et al., read-out: Cmax, drug concentration in plasma): ~30 nM | T½ (human volunteers; human, ref Kirchgessner et al.): ≈ 13 hr | Adverse effects in clinical trials (human volunteers; multi-day dosing, healthy and statin-treated subjects, ref Kirchgessner et al.): elevated plasma and liver lipids and neutropenia | ABCA1 expression in trial subjects (human volunteers; ref Katz et al., 2009, Kirchgessner et al.): increased ABCA1 expression in trial subjects
